Results as given in publication PMC7954794, “Protein context shapes the specificity of SH3 domain-mediated interactions in vivo” (Nature Communications, 2021).

Test system: 575 putative partners (preys) of 22 WT SH3-containing proteins
Experiment: DHFR-PCA on solid medium, WT and SH3-deleted baits (Fig. 1B)
Type: cell-based, Saccharomyces cerevisiae
Design: key to Score: 0: SH3-independent; 1: SH3-dependent PPIs; 2: SH3-inhibited PPIs
Details: for SH3-dependent PPIs: number of PPIs, SH3 domain in its own protein, DHFR-PCA, Fig2D,S2F
How it was run: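 Interactions scored by DHFR protein-fragment complementation on solid medium using robotic pinning; preys (DHFR F[3] fusions) arrayed in duplicate with control borders. Baits carried C-terminal DHFR F[1,2]-FLAG tags, tested as wild type and as SH3-deleted versions carrying a flexible Gly/Ser stuffer.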

Question: For RVS167, which “SH3-dependent PPIs” value is on record?
Answer: The value was 31.

Question: For CDC25, which “SH3-dependent PPIs” value is on record?
Answer: Its value is 3.

Question: What does the source list for YAL005C?
Answer: medrep (log2 median colony size normalized to plate background, PCA score) (bait SLA1-3, DHFR-PCA, label = prey, Replicates 4 (2 for YCR009C, YDR388W, YIL033C)): 5.601; Score (bait SLA1-3, label = prey): 0
